Earlier results, collected in patent US20100189788A1 (Teva Pharmaceutical Industries, Ltd., priority 2009, published 2010).

Conditions: such as hexane toluene and ethylacetate; in words

In the case of `C#CCN[C@@H]1CCc2ccccc21` [rasagiline, R(+)-N-propargyl-1-aminoindan], the “solubility in non-polar organic solvents” value is given as “very soluble”.
